According to patent US8399459B2, “1,4 oxazines as BACE1 and/or BACE2 inhibitors” (Hoffmann-La Roche Inc., priority 2011, dated 2013):

Tests used:
BACE1 = biological target: T1, BACE1 (Homo sapiens, UniProt P56817); assay: Cellular Aβ-lowering assay (Aβ40 ELISA, HEK293 cells expressing human APP695); assay type: cell-based; details: HEK293 cells stably expressing human APP695; Aβ40 in supernatant after 18-20 hrs
T1 construct: Human HEK293 cells which are stably transfected with a vector expressing a cDNA of the human APP wt gene (APP695); endogenous in cells; host or cells: HEK293 (human), stably transfected with human APP695 wt only
Experimental: Cellular Aβ-Lowering Assay:
Human HEK293 cells which are stably transfected with a vector expressing a cDNA of the human APP wt gene (APP695) were used to assess the potency of the compounds in a cellular assay. The cells were seeded in 96-well microtiter plates in cell culture medium (Iscove, plus 10% (v/v) fetal bovine serum, glutamine, penicillin/streptomycin) to about 80% confluence and the compounds were added at a 10× concentration in 1/10 volume of medium without FCS containing 8% DMSO (final concentration of DMSO was kept at 0.8% v/v). After 18-20 hrs incubation at 37° C. and 5% CO2 in a humidified incubator the culture supernatant was harvested for the determination of Aβ40 concentrations. 96well ELISA plates (e.g., Nunc MaxiSorb) were coated with monoclonal antibody which specifically recognize the C-terminal end of Aβ40 (Brockhaus et al., NeuroReport 9, 1481-1486; 1998). After blocking of non-specific binding sites with e.g. 1% BSA and washing, the culture supernatants were added in suitable dilutions together with a horseradish peroxidase-coupled Aβ detection antibody (e.g., antibody 4G8, Senetek, Maryland Heights, Mo.) and incubated for 5 to 7 hrs. Subsequently the wells of the microtiter plate were washed extensively with Tris-buffered saline containing 0.05% Tween 20 and the assay was developed with tetramethylbenzidine/H2O2 in citric acid buffer. After stopping the reaction with one volume 1 N H2SO4 the reaction was measured in an ELISA reader at 450 nm wavelength. The concentrations of Aβ in the culture supernatants were calculated from a standard curve obtained with known amounts of pure Aβ peptide.

[1] = biological target: T2, cathepsin D (from human liver) (Homo sapiens, UniProt P07339); assay: Cathepsin D fluorescent substrate kinetic assay; assay type: biochemical; details: pH 5.5, substrate […]-MR121
T2 construct: cathepsin D (from human liver, Calbiochem); purchased Calbiochem; host or cells: purified from human liver
Excerpt: Cathepsin D and Cathepsin E Fluorescent Substrate Kinetic Assays
The MR121 fluorescence assays described below are based on the fact that MR121 forms a non-fluorescent ground state complex with tryptophan. In solution this formation occurs at millimolar concentrations of tryptophan. The mechanism can be used to design a generic biochemical assay for proteases. A substrate peptide is labeled at the N-terminus with tryptophan and at the C-terminus with the fluorophore MR121 (for cathepsin D the 10 amino acid peptide […]-MR121 was used; for cathepsin E, MR121-[…] was used). In absence of protease activity, the substrates remain intact and the MR121 fluorescence is reduced by the high local Trp-concentration. If the substrates are cleaved by the enzymes the MR121 fluorescence is recovered.
The fluorescent substrate cathepsin D and cathepsin E kinetic assays were performed at room temperature in 384-well microtiter plates (black with clear flat bottom, non binding surface plates from Corning) in a final volume of 51 μl. […] The enzymatic reaction was followed in a plate: vision reader (Perkin Elmer) (excitation wavelength: 630 nm; emission: 695 nm) for at least 30 minutes in a kinetic measurement detecting an increase of MR121 fluorescence during the reaction time. […]

CYP3A4 = biological target: T3, CYP3A4 (Homo sapiens, UniProt P08684); assay: CYP inhibition assay, human liver microsomes, midazolam 1′hydroxylase; assay type: in vitro ADME; details: pooled human liver microsomes, read-out: CYP IC50 3A4
T3 construct: 0.2 mg/ml pooled human liver microsomes; from tissue; host or cells: pooled human liver microsomes
Experimental: (§1) Inhibition of cytochromes P450 (CYPs) 2C9, 2D6 and 3A4 was assessed using human liver microsomes and CYP-selective substrate metabolism reactions. 50 μl incubations were made up containing (finally) 0.2 mg/ml pooled human liver microsomes, 5 μM substrate (diclofenac for CYP2C9 [4′hydroxylase], dextromethorphan for CYP2D6 [O-demethylase] or midazolam for CYP3A4 [1′hydroxylase]), 0.25 μL DMSO containing test inhibitor and NADPH regenerating system. Test inhibitor concentrations of 50, 16.7, 5.6, 1.9, 0.6 and 0.2 μM were assessed in singlicate. Incubations were prewarmed to 37° C. for 10 minutes before initiation by addition of NADPH regenerating system. Incubations were quenched after 5 minutes (20 minutes for dextromethorphan) by addition of 50 μl cold acetonitrile containing 20 ng/ml 4-OH-diclofenac-13C6, 20 ng/mL dextrorphan-D3 and 20 ng/mL 1-OH-midazolam-D4. Quenched incubates were stored at −20° C. for at least 1 hour before centrifugation (20,000×g, 20 minutes). Supernatants were removed and diluted 1:1 with water prior to analysis using a RapidFire sample injector system and API4000 mass spectrometer. Peak areas for substrate, metabolite and stable-labelled metabolite standard were determined using MS/MS. The peak area ratios between the metabolite generated by the enzymatic reaction and the internal standard were used in subsequent calculations. The percentage of (DMSO) control activity was calculated for each incubate and IC50 values estimated by non-linear regression. Sulfaphenazole, quinidine or ketoconazole were tested in each CYP2C9, CYP2D6 or CYP3A4 inhibition experiment, respectively, to ensure assay sensitivity and reproducibility. (Validated assays for human cytochrome P450 activities, R. L. Walsky and R. S. Obach, Drug Metabolism and Disposition 32: 647-660, 2004. and S. Fowler and H. Zhang, The AAPS Journal, Vol. 10, No. 2, 410-424, 2008.)

CYP2D6 = biological target: T4, CYP2D6 (Homo sapiens, UniProt P10635); assay: CYP inhibition assay, human liver microsomes, dextromethorphan O-demethylase; assay type: in vitro ADME; details: pooled human liver microsomes, read-out: CYP IC50 2D6
T4 construct: 0.2 mg/ml pooled human liver microsomes; from tissue; host or cells: pooled human liver microsomes
Experimental: as §1

CYP2C9 = biological target: T5, CYP2C9 (Homo sapiens, UniProt P11712); assay: CYP inhibition assay, human liver microsomes, diclofenac 4′hydroxylase; assay type: in vitro ADME; details: pooled human liver microsomes, read-out: CYP IC50 2C9
T5 construct: 0.2 mg/ml pooled human liver microsomes; from tissue; host or cells: pooled human liver microsomes
Experimental: as §1

T2 sequence (P07339 65-162 limits assumed): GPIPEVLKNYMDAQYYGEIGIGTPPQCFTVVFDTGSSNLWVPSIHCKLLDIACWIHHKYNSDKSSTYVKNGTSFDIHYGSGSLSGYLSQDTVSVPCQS
T2 sequence (P07339 169-412 limits assumed): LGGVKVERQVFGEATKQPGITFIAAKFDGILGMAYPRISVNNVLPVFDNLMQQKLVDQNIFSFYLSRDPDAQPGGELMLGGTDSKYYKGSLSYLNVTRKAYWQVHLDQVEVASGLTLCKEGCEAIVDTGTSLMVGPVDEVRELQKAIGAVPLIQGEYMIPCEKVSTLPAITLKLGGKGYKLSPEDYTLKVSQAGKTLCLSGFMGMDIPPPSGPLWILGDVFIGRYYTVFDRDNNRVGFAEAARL
T4 sequence (P10635 whole entry): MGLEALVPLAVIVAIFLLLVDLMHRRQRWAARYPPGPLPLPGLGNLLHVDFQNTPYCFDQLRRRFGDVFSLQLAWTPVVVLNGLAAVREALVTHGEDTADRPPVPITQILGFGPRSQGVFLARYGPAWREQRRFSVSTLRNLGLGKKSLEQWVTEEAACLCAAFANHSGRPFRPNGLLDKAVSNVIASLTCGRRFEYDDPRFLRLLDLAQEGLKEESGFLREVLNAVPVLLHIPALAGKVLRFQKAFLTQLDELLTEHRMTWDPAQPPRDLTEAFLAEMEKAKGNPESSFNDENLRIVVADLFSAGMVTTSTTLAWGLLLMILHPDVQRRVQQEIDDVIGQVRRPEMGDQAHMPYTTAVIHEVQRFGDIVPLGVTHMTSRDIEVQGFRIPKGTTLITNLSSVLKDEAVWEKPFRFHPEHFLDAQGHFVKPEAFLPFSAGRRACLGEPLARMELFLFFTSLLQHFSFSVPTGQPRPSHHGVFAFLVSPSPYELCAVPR
T3 sequence (P08684 whole entry): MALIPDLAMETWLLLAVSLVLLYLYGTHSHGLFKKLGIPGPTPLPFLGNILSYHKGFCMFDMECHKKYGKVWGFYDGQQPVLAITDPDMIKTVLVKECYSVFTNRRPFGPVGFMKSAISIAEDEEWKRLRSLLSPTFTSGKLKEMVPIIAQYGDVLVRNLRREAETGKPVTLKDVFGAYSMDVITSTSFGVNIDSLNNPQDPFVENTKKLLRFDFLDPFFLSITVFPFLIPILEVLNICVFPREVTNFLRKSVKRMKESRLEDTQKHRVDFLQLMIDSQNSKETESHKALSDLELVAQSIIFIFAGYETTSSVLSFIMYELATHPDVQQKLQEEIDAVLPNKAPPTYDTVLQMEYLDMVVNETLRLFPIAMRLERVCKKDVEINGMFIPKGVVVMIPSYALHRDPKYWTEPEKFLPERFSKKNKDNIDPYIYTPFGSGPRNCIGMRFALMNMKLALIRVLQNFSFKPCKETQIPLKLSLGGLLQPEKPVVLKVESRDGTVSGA
T1 sequence (P56817 46-501): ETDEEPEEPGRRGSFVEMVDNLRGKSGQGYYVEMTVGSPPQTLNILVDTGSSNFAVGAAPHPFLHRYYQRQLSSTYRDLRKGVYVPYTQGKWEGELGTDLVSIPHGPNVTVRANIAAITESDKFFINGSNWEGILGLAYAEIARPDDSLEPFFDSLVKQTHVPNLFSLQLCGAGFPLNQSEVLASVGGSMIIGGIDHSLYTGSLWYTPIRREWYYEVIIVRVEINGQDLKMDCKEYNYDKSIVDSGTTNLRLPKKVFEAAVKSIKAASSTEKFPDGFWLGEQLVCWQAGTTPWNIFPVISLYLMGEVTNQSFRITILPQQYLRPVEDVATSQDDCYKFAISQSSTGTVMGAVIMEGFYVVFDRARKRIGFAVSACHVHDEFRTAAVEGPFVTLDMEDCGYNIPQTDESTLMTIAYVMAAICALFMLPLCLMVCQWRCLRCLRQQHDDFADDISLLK
T5 sequence (P11712 whole entry): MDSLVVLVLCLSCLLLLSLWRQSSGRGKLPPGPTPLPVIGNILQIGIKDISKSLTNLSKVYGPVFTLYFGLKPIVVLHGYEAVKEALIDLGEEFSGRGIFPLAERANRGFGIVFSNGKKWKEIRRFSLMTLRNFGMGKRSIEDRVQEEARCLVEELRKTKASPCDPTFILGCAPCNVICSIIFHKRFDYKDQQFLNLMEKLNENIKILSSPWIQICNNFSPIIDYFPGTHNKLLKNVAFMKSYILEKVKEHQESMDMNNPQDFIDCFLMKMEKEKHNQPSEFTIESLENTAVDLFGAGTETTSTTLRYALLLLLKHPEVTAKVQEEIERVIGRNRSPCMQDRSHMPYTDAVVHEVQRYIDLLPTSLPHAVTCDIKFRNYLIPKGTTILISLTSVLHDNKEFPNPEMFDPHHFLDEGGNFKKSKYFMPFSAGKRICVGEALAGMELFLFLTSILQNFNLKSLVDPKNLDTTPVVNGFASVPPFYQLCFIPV

Row | SMILES | IC50 (BACE1) [µM] | IC50 [1] [µM] | IC50 (CYP3A4) [µM] | IC50 (CYP2D6) [µM] | IC50 (CYP2C9) [µM]
1 | CC1(c2cccc(-c3cc(Cl)cc(Cl)c3)c2)COCC(N)=N1 (stereo not shown) [Example 32, 5-(3′,5′-Dichloro-biphenyl-3-yl)-5-methyl-5,6-dihydro-2H-[1,4]oxazin-3-ylamine] | 1.53 | 2.8 | > 50 | > 50 | 3.7
2 | CC1(c2cc(-c3cncnc3)ccc2F)COCC(N)=N1 (stereo not shown) [Example 36, 5-(2-Fluoro-5-pyrimidin-5-yl-phenyl)-5-methyl-5,6-dihydro-2H-[1,4]oxazin-3-ylamine] | 0.98 | 34 | > 50 | 41 | > 50
